{"source": "patent US20210196685A1", "about": "“COMPOSITION FOR ERADICATING HELICOBACTER PYLORI” (HK INNO.N CORPORATION, priority 2018, published 2021)", "key": {"[1]": {"experiment": "Clinical Study 1, Cohort 2: 24-hour intragastric pH on repeated co-administration with amoxicillin/clarithromycin", "assay_type": "in vivo, human", "source_text": "To identify an effect of eradicating Helicobacter pylori in the present invention, a clinical study was designed in accordance with a randomized, open-label, active-controlled, parallel and multiple-dose design. A total of 221 patients were subjected to screening for this study. Out of them, 36 patients were registered thereto and the completed clinical results were obtained from 34 patients.\nParticularly, the 36 patients above were divided into three patient groups (T1, T2 and R) and the clinical study was performed accordingly. […]\nThe T1 group was repeatedly given 50 mg of CJ-12420 and 1000 mg of amoxicillin/500 mg of clarithromycin twice a day for seven days; the T2 group was repeatedly given 100 mg of CJ-12420 and 1000 mg of amoxicillin/500 mg of clarithromycin twice a day for seven days; and the R group was repeatedly given 40 mg of pantoprazole and 1000 mg of amoxicillin/500 mg of clarithromycin twice a day for seven days. An intragastric pH was measured from all the subjects on Day 1 for 24 hours, and the intragastric pH was also measured for 24 hours on Day 1 and Day 7 of repeated administration. Also, a negative conversion rate was calculated upon a follow-up visit paid by subjects who were identified to be H. pylori positive on the UBT test during screening, and stability evaluation was performed according to a predetermined schedule. […]"}, "[2]": {"experiment": "Clinical Study 1, Cohort 1: pharmacokinetic interaction of multiple-dose tegoprazan and amoxicillin/clarithromycin", "assay_type": "in vivo, human", "settings": "for change of AUC on administering the three formulations in combination (in words) / change of Cmax on administering the three formulations in combination (in words): tegoprazan + amoxicillin + clarithromycin in combination", "description": "To evaluate pharmacokinetic interaction of multiple-dose administration of single and combination of tegoprazan and amoxicillin/clarithromycin, a clinical study was designed in accordance with a randomized, open-label, and multiple-dose design.\nA total of 24 subjects who had been determined eligible to participate in the study were randomly assigned in a 1:1 ratio to each one of the two groups. Each randomly-assigned group was administered with investigational medical products as arranged during each intervention period and underwent a clinical study as designed. In consideration of the half-life of each product, a 14-day wash-out period was given between the intervention periods.\nA total of 24 subjects were divided into group 1 and group 2. During the first intervention period, subjects of group 1 (12 person) were repeatedly administered with 100 mg of tegoprazan twice a day for four days and administered once a day on the fifth day on which a pharmacokinetic clinical study was conducted. During the second intervention period after a 14-day wash-out period, they were repeatedly administered with 1000 mg of amoxicillin and 500 mg of clarithromycin twice a day for four days and administered once a day on the fifth day. During the third intervention period after a 14-day wash-out period, they were repeatedly administered with 100 mg of tegoprazan, 1000 mg of amoxicillin, and 500 mg of clarithromycin twice a day for six days and administered once a day on the seventh day. Following the last dose of each intervention period, pharmacokinetic blood samples were collected for 17 times over 72 hours in the first period, 14 times over 48 hours in the second period, and 19 times over 120 hours in the third period.\nDrugs were administered to subjects of group 2 (12 person) in the reverse order to the way the study was conducted on group 1 in the first and second intervention periods and in the same order in the third intervention period. Pharmacokinetic blood samples were collected in the same manner as group 1.\nThe average plasma concentrations of tegoprazan, clarithromycin, and amoxicillin were measured and time-based plasma concentration and time-based drug concentration patterns were observed when tegoprazan was repeatedly administered alone, amoxicillin/clarithromycin were repeatedly administered and tegoprazan, amoxicillin, and clarithromycin were repeatedly administered in combination.\nPharmacokinetics of tegoprazan, amoxicillin, and clarithromycin were evaluated. Descriptive statistics of pharmacokinetic evaluation parameters were presented. Point estimates for geometric mean ratio between each group and 90% confidence interval were calculated from the log-converted primary pharmacokinetic evaluation parameters by using a linear mixed effect model."}, "[3]": {"settings": "tegoprazan 100 mg twice a day, with amoxicillin 1000 mg/clarithromycin 500 mg versus alone"}}, "note": "Entries after “also recorded” stand apart in the source; their conditions may differ."}
{"smiles": "Cc1nc2c(OC3CCOc4cc(F)cc(F)c43)cc(C(=O)N(C)C)cc2[nH]1", "note": "(stereo not shown) [Tegoprazan, 4-[(5,7-difluoro-3,4-dihydro-2H-chromene-4-yl)oxy]-N,N,2-trimethyl-1H-benzimidazole-6-carboxamide]", "values": [{"measurement": "speed of intragastric pH increase (to 6 or more) right after the administration", "setting": "[1]", "value": "two hours or less"}, {"measurement": "increase of AUC when administered in combination with amoxicillin/clarithromycin", "setting": "[2]; [3]", "value": 2.70, "unit": "times"}, {"measurement": "increase of Cmax when administered in combination with amoxicillin/clarithromycin", "setting": "[2]; [3]", "value": 2.24, "unit": "times"}, {"measurement": "change of AUC on administering the three formulations in combination (in words)", "setting": "[2]", "value": "increased"}, {"measurement": "change of Cmax on administering the three formulations in combination (in words)", "setting": "[2]", "value": "increased"}]}
{"smiles": "CC[C@H]1OC(=O)[C@H](C)[C@@H](O[C@H]2C[C@@](C)(OC)[C@@H](O)[C@H](C)O2)[C@H](C)[C@@H](O[C@@H]2O[C@H](C)C[C@H](N(C)C)[C@H]2O)[C@](C)(OC)C[C@@H](C)C(=O)[C@H](C)[C@@H](O)[C@]1(C)O", "note": "[clarithromycin, (3R,4S,5S,6R,7R,9R,11R,12R,13S,14R)-6-[(2S,3R,4S,6R)-4-(dimethylamino)-3-hydroxy-6-methyloxane-2-yl]oxy-14-ethyl-12,13-dihydroxy-4-[(2R,4R,5S,6S)-5-hydroxy-4-methoxy-4,6-dimethyloxane-2-yl]oxy-7-methoxy-3,5,7,9,11,13-hexamethyl-oxacyclotetradecane-2,10-dione, reference compound]", "values": [{"measurement": "change of AUC on administering the three formulations in combination (in words)", "setting": "[2]", "value": "tendency to increase; also recorded: increased"}, {"measurement": "change of Cmax on administering the three formulations in combination (in words)", "setting": "[2]", "value": "tendency to increase; also recorded: increased"}]}
